Data as given in ChEMBL document CHEMBL1201862, “PubChem BioAssay data set” (2004).
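Following 48 hours of exposure in 96-well plates, responses at five concentrations were used to interpolate endpoints linearly. GI50 marks 50% less growth.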 Activity calls are given as the source filed them. Cut-off read from the data, not from the text of the source: active = GI50 up to about 1.1 µM and inactive = higher.

Tests used:
Experiment in all cases: NCI tumour cell line growth inhibition, 48 h
A498 = tested on: A498
EKVX = tested on: EKVX
HCC 2998 = tested on: HCC 2998
HL-60 = tested on: HL-60
HOP-92 = tested on: HOP-92
Malme-3M = tested on: Malme-3M
NCI-H23 = tested on: NCI-H23
NCI-H460 = tested on: NCI-H460
OVCAR-3 = tested on: OVCAR-3
RPMI-8226 = tested on: RPMI-8226
RXF 393 = tested on: RXF 393
SF-295 = tested on: SF-295
SF-539 = tested on: SF-539
SK-MEL-5 = tested on: SK-MEL-5
UO-31 = tested on: UO-31
DU-145 = tested on: DU-145
NCI/ADR-RES = tested on: NCI/ADR-RES
PC-3 = tested on: PC-3
Hs-578T = tested on: Hs-578T
T47D = tested on: T47D

Compound | GI50 (A498) | GI50 (EKVX) | GI50 (HCC 2998) | GI50 (HL-60) | GI50 (HOP-92) | GI50 (Malme-3M) | GI50 (NCI-H23) | GI50 (NCI-H460) | GI50 (OVCAR-3) | GI50 (RPMI-8226) | GI50 (RXF 393) | GI50 (SF-295) | GI50 (SF-539) | GI50 (SK-MEL-5) | GI50 (UO-31) | GI50 (DU-145) | GI50 (NCI/ADR-RES) | GI50 (PC-3) | GI50 (Hs-578T) | GI50 (T47D)
Cc1cc(C)cc(NC(N)=S)c1 | > 100 µM (inactive) | > 100 µM (inactive) | > 100 µM (inactive) | 30.8 µM (inactive) | > 100 µM (inactive) | > 100 µM (inactive) | > 100 µM (inactive) | > 100 µM (inactive) | > 100 µM (inactive) | 31.1 µM (inactive) | 20.2 µM (inactive) | > 100 µM (inactive) | > 100 µM (inactive) | > 100 µM (inactive) | > 100 µM (inactive) | – | – | – | – | –
CN1C(=O)C(O)CC1c1ccccc1F (stereo not given) | > 100 µM (inactive) | > 100 µM (inactive) | > 100 µM (inactive) | > 100 µM (inactive) | > 100 µM (inactive) | > 100 µM (inactive) | > 100 µM (inactive) | > 100 µM (inactive) | > 100 µM (inactive) | > 100 µM (inactive) | > 100 µM (inactive) | > 100 µM (inactive) | > 100 µM (inactive) | > 100 µM (inactive) | > 100 µM (inactive) | > 100 µM (inactive) | > 100 µM (inactive) | > 100 µM (inactive) | – | –
CCOC1NC(/N=C/c2ccc(OC)cc2)=C(C#N)C1C#N (stereo not given) | > 100 µM (inactive) | 92 µM (inactive) | > 100 µM (inactive) | 37.5 µM (inactive) | – | 90.8 µM (inactive) | 46 µM (inactive) | > 100 µM (inactive) | > 100 µM (inactive) | 46.7 µM (inactive) | 34.5 µM (inactive) | > 100 µM (inactive) | 93.8 µM (inactive) | 38.6 µM (inactive) | > 100 µM (inactive) | > 100 µM (inactive) | > 100 µM (inactive) | 46 µM (inactive) | 47.5 µM (inactive) | –
Nc1nc(Cl)c(/C=N\O)c(NCC2(CO)CC(=O)C2)n1 | 34.4 µM (inactive) | > 100 µM (inactive) | > 100 µM (inactive) | 5.33 µM (inactive) | 40.8 µM (inactive) | 33.7 µM (inactive) | 36.4 µM (inactive) | 67.3 µM (inactive) | 60.1 µM (inactive) | 3.33 µM (inactive) | 39.4 µM (inactive) | 56 µM (inactive) | 78.2 µM (inactive) | 76.7 µM (inactive) | 47.4 µM (inactive) | 77.4 µM (inactive) | > 100 µM (inactive) | 80.2 µM (inactive) | 18.7 µM (inactive) | –
COc1ccc(-c2nc(-c3cnccn3)n(COCCO)n2)cc1 | – | – | > 100 µM (inactive) | > 100 µM (inactive) | > 100 µM (inactive) | – | > 100 µM (inactive) | > 100 µM (inactive) | > 100 µM (inactive) | > 100 µM (inactive) | > 100 µM (inactive) | > 100 µM (inactive) | > 100 µM (inactive) | > 100 µM (inactive) | > 100 µM (inactive) | > 100 µM (inactive) | > 100 µM (inactive) | > 100 µM (inactive) | – | > 100 µM (inactive)
NC(=O)/C=C/c1c[nH]c2nccnc12 | 2.58 µM (inactive) | 3.15 µM (inactive) | 1.14 µM (inactive) | 2.26 µM (inactive) | 3.52 µM (inactive) | 0.726 µM (active) | 0.678 µM (active) | 3.7 µM (inactive) | 2.34 µM (inactive) | 2.43 µM (inactive) | 1.99 µM (inactive) | 3.26 µM (inactive) | 2.24 µM (inactive) | 2.25 µM (inactive) | 0.735 µM (active) | 3.44 µM (inactive) | 2.89 µM (inactive) | 2.99 µM (inactive) | – | 3.5 µM (inactive)
NS(=O)(=O)c1nnc(NC(=S)NC(=O)Nc2ccc(Cl)c(Cl)c2)s1 | – | 26.3 µM (inactive) | – | 26.9 µM (inactive) | 13.5 µM (inactive) | 22.6 µM (inactive) | 18.1 µM (inactive) | – | 20.8 µM (inactive) | 25.8 µM (inactive) | 19.1 µM (inactive) | 21.2 µM (inactive) | 2.39 µM (inactive) | 21.2 µM (inactive) | 20.6 µM (inactive) | 20.8 µM (inactive) | 25.4 µM (inactive) | 27.3 µM (inactive) | 24.3 µM (inactive) | –
N#Cc1c(N)[nH]c(=S)c(C#N)c1-c1cccc(Cl)c1 | 30.1 µM (inactive) | 25.6 µM (inactive) | 15.6 µM (inactive) | 23.2 µM (inactive) | 24.4 µM (inactive) | 56.1 µM (inactive) | 71.9 µM (inactive) | 32.5 µM (inactive) | 26.9 µM (inactive) | 23.8 µM (inactive) | 22.4 µM (inactive) | 34.9 µM (inactive) | 49.2 µM (inactive) | 20.2 µM (inactive) | 32.8 µM (inactive) | 33.3 µM (inactive) | 67.1 µM (inactive) | 21.8 µM (inactive) | 26.7 µM (inactive) | –
